For eleven compounds, IC50 results are on record in patent US6410792B1, “Amide derivatives and methods for using the same as selective neuropeptide Y receptor antagonists” (Bayer Corporation, priority 1997, dated 2002).

Counter-ions that a name gives are not always drawn. Like-named read-outs stand apart in the source and are kept apart here.

Test [1] deals with T1, Human NPY5 receptor (Homo sapiens, UniProt Q15761).
T1 sequence (Q15761 1-445): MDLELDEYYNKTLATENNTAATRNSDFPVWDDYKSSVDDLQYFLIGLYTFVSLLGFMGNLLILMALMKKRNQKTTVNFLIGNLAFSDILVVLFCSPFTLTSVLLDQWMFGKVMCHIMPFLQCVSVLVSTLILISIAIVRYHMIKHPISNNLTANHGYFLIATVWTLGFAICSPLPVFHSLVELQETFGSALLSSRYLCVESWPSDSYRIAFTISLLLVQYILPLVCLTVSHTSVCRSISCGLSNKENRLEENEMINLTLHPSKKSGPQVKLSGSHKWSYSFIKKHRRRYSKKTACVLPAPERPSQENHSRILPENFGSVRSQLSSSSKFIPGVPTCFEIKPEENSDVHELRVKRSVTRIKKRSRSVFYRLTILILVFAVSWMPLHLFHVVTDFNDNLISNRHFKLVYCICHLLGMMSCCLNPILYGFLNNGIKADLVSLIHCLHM
The test can be described thus: Human NPY5 receptor binding assay ([125I]PYY, membrane protein). The procedure, abridged:
(§1)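 Radioligand displacement: 75-100 pM [125I]PYY (porcine), membranes, drug dilution; 2 h, RT, mixing; 25 mM Tris pH 7.4 with 0.1% BSA, 0.5 mg/ml bacitracin. NSB 1 μM PYY. Filtration on PEI-treated GF/C, ice-cold buffer wash, gamma or scintillation counting.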

The target of test [2] is T2, Rat NPY5 receptor (Rattus norvegicus, UniProt Q63634).
T2 sequence (Q63634 1-445): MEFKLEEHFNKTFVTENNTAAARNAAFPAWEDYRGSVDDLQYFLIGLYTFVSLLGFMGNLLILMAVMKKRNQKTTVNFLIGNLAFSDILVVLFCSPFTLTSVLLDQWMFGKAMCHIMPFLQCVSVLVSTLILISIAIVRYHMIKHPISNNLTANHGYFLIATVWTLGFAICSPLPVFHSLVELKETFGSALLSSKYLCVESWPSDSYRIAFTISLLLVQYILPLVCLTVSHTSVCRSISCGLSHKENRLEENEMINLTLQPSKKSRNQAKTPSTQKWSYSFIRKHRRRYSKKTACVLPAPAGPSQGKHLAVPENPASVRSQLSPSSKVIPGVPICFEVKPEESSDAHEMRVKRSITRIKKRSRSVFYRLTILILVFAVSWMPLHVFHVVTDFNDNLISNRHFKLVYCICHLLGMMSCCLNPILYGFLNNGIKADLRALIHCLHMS
The test is described as follows: Rat NPY5 receptor binding assay ([125I]PYY, membrane protein). The procedure, abridged: as §1

The target in test [3] is human Y4/PP1 receptor (Homo sapiens, UniProt P50391). The test can be described thus: Human Y4/PP1 receptor binding assay ([125I]human PP, membrane protein). The note with it: [125I]human PP, membrane protein; read-out: hNPY4 IC50. Here is the method:
B. Human Y2 and Y4/PP1 Receptor Binding Assays
Binding assays were performed on GF/C Millipore 96-well plates pretreated with 0.02% polyethylenimine. The binding buffer for rat Y2 binding is Krebs-Ringer bicarbonate (pH 7.4) containing 0.01% BSA and 0.005% bacitracin. Samples consist of membrane protein, 25 pM [1251]PYY and drug dilution. Nonspecific binding is defined by 1 μM NPY. The binding buffer for human Y4/PP1 binding consists of 137 mM NaCl, 5.4 mM KCl, 0.44 mM KH2PO4, 1.26 mM CaCl2, 0.81 mM MgSO4, 20 mM HEPES, 1 mM dithiothreitol, 0.1% bacitracin, 100 mg/l streptomycin sulfate, 1 mg/l aprotinin, 10 mg/ml soybean trypsin inhibitor and 0.3% BSA, pH 7.4. Samples consist of membrane protein, 50 pM human [1251]human PP (hPP: NEN DuPont, Boston, Mass.) and drug dilution. 1 μM hPP is used to define nonspecific binding.
After a 2 hour incubation at room temperature with constant mixing, the samples are aspirated on a vacuum manifold, and rinsed with ice-cold binding buffer. The amount of radioactivity in each well is quantitated with either gamma counting or liquid scintillation.

For test [4], the target named is T3, Human NPY1 receptor (Homo sapiens, UniProt P25929).
T3 construct: host or cells: SK-N-MC cells
T3 sequence (P25929 1-384): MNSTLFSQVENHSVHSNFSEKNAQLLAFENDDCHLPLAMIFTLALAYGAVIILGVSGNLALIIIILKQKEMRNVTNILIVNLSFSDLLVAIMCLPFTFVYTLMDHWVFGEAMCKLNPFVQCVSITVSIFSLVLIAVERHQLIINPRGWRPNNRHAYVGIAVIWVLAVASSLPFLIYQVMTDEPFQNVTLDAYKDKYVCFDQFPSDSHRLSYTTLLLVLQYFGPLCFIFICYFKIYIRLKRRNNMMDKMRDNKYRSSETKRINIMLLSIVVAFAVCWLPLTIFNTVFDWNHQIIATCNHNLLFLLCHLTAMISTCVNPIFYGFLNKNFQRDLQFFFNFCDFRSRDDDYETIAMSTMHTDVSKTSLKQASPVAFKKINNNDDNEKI
The test can be described thus: Human NPY1 receptor binding assay ([125I]PYY, SK-N-MC cells). The note with it: [125I]PYY, SK-N-MC cells; read-out: hNPYI IC50. Here is the method:
A. Human NPY1 Receptor Binding Assay
This is a modification of Gordon et al., (J. Neurochem. 55:506-513, 1990). SK-N-MC cell (ATCC, Rockville, Md.) were plated in 24-well plates. Once confluent, cells were rinsed with Dulbecco's phosphate buffered saline (DPBS). Cells were then preincubated in binding buffer containing serum-free DMEM, 25 mM HEPES (pH 7.3), 0.5% bovine serum albumin (BSA), 0.1% bacitracin and 0.1 mM phenylmethylsulfonylfluoride for 30 minutes at room temperature. Drug dilution and [125I]PYY (˜50 pM: NEN-DuPont) were added to the wells, and the cells were incubated for an additional 3 hours at room temperature, followed by rinsing with ice-cold DPBS. Nonspecific binding was defined with 1 μM NPY. After lysing the cells with 1% Triton X-100, the amount of radioactivity in the lysates was quantitated with a gamma counter.

In test [5] the target is T4, Y2 receptor (Homo sapiens, UniProt P49146).
T4 sequence (P49146 1-381): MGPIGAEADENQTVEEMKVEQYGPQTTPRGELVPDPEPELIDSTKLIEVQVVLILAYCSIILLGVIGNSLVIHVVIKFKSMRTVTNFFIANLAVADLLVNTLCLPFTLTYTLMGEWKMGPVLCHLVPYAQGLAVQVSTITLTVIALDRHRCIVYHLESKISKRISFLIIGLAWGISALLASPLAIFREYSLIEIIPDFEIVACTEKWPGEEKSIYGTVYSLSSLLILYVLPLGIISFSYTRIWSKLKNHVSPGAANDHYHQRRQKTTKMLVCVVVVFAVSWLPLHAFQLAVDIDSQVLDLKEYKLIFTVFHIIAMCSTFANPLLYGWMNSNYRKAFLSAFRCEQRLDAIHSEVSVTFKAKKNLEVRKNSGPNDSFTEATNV
The test is described as follows: Y2 receptor binding assay ([125I]PYY, membrane protein). The note with it: [125I]PYY, membrane protein; read-out: hNPY2 IC50. The procedure, abridged:
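Filtration binding with membrane protein and drug dilution, 2 h at room temperature with mixing, radioactivity counted by gamma or scintillation. Y2: 25 pM [125I]PYY in Krebs-Ringer bicarbonate pH 7.4 with 0.01% BSA, nonspecific by 1 μM NPY. Y4/PP1: 50 pM [125I]hPP in HEPES-buffered saline pH 7.4 with protease inhibitors and 0.3% BSA, nonspecific by 1 μM hPP.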

Where [6] appears, read: [125I]PYY, read-out: hNPY5 IC50.
Where [7] appears, read: [125I]PYY, read-out: rNPY5 IC50.

As usually defined, the IC50 is the concentration needed to halve the response being measured.

Sequence of human Y4/PP1 receptor (P50391 whole entry): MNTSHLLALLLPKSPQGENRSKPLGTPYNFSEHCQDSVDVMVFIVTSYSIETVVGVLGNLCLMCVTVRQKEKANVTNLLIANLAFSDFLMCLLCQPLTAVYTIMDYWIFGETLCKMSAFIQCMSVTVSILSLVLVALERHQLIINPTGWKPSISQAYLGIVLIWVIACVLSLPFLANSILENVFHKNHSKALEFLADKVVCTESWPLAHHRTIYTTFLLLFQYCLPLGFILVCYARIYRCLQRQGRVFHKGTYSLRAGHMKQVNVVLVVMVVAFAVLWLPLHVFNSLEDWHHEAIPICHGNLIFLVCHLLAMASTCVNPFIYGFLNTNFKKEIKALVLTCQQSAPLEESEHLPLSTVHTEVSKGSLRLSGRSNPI

As for `COc1ccc(NC(=O)CN2CCC(n3c(=O)[nH]c4ccccc43)CC2)cc1` [Compound 361, N-(4-Methoxy-phenyl)-2-[4-(2-oxo-2,3-dihydro-benzoimidazol-1-yl)-piperidin-1-yl]-acetamide, reference compound], the IC50 in test [1] (setting [6]) was 0.41 µM; in test [2] (setting [7]), 0.539 µM; in test [3], greater than 5 µM; in test [4] it was greater than 5 µM; in test [5] it was greater than 5 µM.

With `O=C(Nc1ccc(C2CCCCC2)cc1)C(c1ccccc1)N1CCC(n2c(=O)[nH]c3ccccc32)CC1` (stereo not shown) [Compound 313, N-(4-Cyclohexyl-phenyl)-2-[4-(2-oxo-2,3-dihydro-benzoimidazol-1-yl)-piperidin-1-yl]-2-phenyl-acetamide], the 50% inhibitory concentration (IC50) in test [1] (hNPY5 IC50, [125I]PYY) was 0.035 µM; in test [2] (rNPY5 IC50, [125I]PYY), 0.02 µM; in test [3], greater than 5 µM; in test [4] it was greater than 5 µM; in test [5], greater than 5 µM.

As for `CC(C(=O)Nc1ccc(-c2ccccc2)cc1)N1CCC(n2c(=O)[nH]c3ccccc32)CC1` (stereo not shown) [Compound 329, N-Biphenyl-4-yl-2-[4-(2-oxo-2,3-dihydro-benzoimidazol-1-yl)-piperidin-1-yl]-propionamide; hydrochloride], the IC50 in test [1] (setting [6]) is 0.02 µM; in test [2] (setting [7]), 0.016 µM; in test [3], greater than 5 µM; in test [4], greater than 5 µM; in test [5], greater than 5 µM.

`CCCCOc1ccc2ccc(NC(=O)CN3CCC(n4c(=O)[nH]c5ccccc54)CC3)cc2c1` [Compound 343, N-(7-Butoxy-naphthalen-2-yl)-2-[4-(2-oxo-2,3-dihydro-benzoimidazol-1-yl)-piperidin-1-yl]-acetamide, reference compound]: the IC50 in test [1] (setting [6]) is 0.11 µM; in test [2] (setting [7]) it was 0.045 µM; in test [3], greater than 5 µM; in test [4], greater than 5 µM; in test [5] it was greater than 5 µM.

Consider `O=C(CNCCCn1c(=O)[nH]c2ccccc21)Nc1ccc(-c2ccccc2)cc1` [Compound 277, N-Biphenyl-4-yl-2-[3-(2-oxo-2,3-dihydro-benzoimidazol-1-yl)-propylamino]-acetamide], for which the IC50 in test [1] (setting [6]) was 0.89 µM; in test [2] (setting [7]) it was 1.6 µM; in test [3], greater than 5 µM; in test [4], greater than 5 µM; in test [5] it was greater than 5 µM.

As for `O=C(CN1CCC(n2c(=O)[nH]c3ccccc32)CC1)Nc1ccccc1-c1ccccc1` [Compound 324, N-Biphenyl-2-yl-2-[4-(2-oxo-2,3-dihydro-benzoimidazol-1-yl)-piperidin-1-yl]-acetamide; hydrochloride], the IC50 in test [1] (setting [6]) is 0.39 µM; in test [2] (setting [7]), 0.69 µM; in test [3], greater than 5 µM; in test [4], greater than 5 µM; in test [5] it was greater than 5 µM.

Regarding `CN(C)c1cccc(NC(=O)CN2CCC(n3c(=O)[nH]c4ccccc43)CC2)c1` [Compound 338, reference compound], the IC50 was 0.91 µM in test [1] (setting [6]); 1.2 µM in test [2] (setting [7]); greater than 5 µM in test [3]; greater than 5 µM in test [4]; greater than 5 µM in test [5].

In the case of `CC(=O)Nc1ccc(NC(=O)CN2CCC(n3c(=O)[nH]c4ccccc43)CC2)cc1` [Compound 351, N-(4-Acetylamino-phenyl)-2-[4-(2-oxo-2,3-dihydro-benzoimidazol 1-yl)-piperidin-1-yl]-acetamide, reference compound], the IC50 in test [1] (setting [6]) was 0.58 µM; in test [2] (setting [7]), 0.979 µM; in test [3], greater than 5 µM; in test [4], greater than 5 µM; in test [5] it was greater than 5 µM.

Turning to “N-(2-Amino-4-propylsulfnyl-phenyl)-2-[4-(2-oxo-2,3-dihydro-benzoimidazol-1-yl)-pipendin-1-yl]-acetamide; compound with GENERIC INORGANIC NEUTRAL COMPONENT [Compound 339, reference compound]”, the concentration for half-maximal inhibition (IC50) is 0.034 µM in test [1] (setting [6]); 0.031 µM in test [2] (setting [7]); greater than 5 µM in test [3]; greater than 5 µM in test [4]; greater than 5 µM in test [5].

As for `CN(C)c1ccc(NC(=O)CN2CCC(n3c(=O)[nH]c4ccccc43)CC2)cc1` [Compound 353, N-(4-Dimethylamino-phenyl)-2-[4-(2-oxo-2,3-dihydro-benzoimidazol-1-yl)-piperidin-1-yl]acetamide, reference compound], the IC50 in test [1] (setting [6]) is 0.135 µM; in test [2] (setting [7]), 0.187 µM; in test [3] it was greater than 5 µM; in test [4], greater than 5 µM; in test [5], greater than 5 µM.

Consider `O=C(CN1CCC(n2c(=O)[nH]c3ccccc32)CC1)Nc1ccc(-c2cnco2)cc1` [Compound 267, N-(4-Oxazol-5-yl-phenyl)-2-[4-(2-oxo-2,3-dihydro-benzoimidazol-1-yl)-piperidin-1-yl]-acetamide; hydrate], for which the IC50 was 0.15 µM in test [1] (setting [6]); 0.15 µM in test [2] (setting [7]); greater than 5 µM in test [3]; greater than 5 µM in test [4]; greater than 5 µM in test [5].
